The numbers were not newly measured in patent publication US20240050950A1, “GRADIENT-BASED MICROFLUIDIC CIRCUIT, DEVICE, AND METHOD FOR PERFORMING AN ASSAY” (priority 2020, published 2024), which cites them from elsewhere.

Where a name gives a salt, the structure may show the parent alone.

For the first data set the following is noted: Table 1, antimicrobial agents/drugs; cited from earlier work.
Consider `C[C@@H]1[C@H](O)[C@@H](C)/C=C/C=C/C=C/C=C/C=C/C=C/C=C/[C@H](O[C@@H]2O[C@H](C)[C@@H](O)[C@H](N)[C@@H]2O)C[C@@H]2O[C@](O)(C[C@@H](O)C[C@@H](O)[C@H](O)CC[C@@H](O)C[C@@H](O)CC(=O)O[C@H]1C)C[C@H](O)[C@H]2C(=O)O` [Amphotericin B (Fungizone), Amphotericin B], for which the Molar volume is 689.4 ± 5.0 cm^3.
Regarding `CC1=C(C(=O)O)N2C(=O)[C@@H](NC(=O)[C@H](N)c3ccccc3)[C@H]2SC1` [Cefalexin], the Molar volume is 231.3 ± 5.0 cm^3.
Take `CCCCCCCCCC(=O)N[C@@H](Cc1c[nH]c2ccccc12)C(=O)N[C@H](CC(N)=O)C(=O)N[C@@H](CC(=O)O)C(=O)N[C@@H]1C(=O)NCC(=O)N[C@@H](CCCN)C(=O)N[C@@H](CC(=O)O)C(=O)N[C@H](C)C(=O)N[C@@H](CC(=O)O)C(=O)NCC(=O)N[C@H](CO)C(=O)N[C@@H]([C@H](C)CC(=O)O)C(=O)N[C@@H](CC(=O)c2ccccc2N)C(=O)O[C@@H]1C` [Daptomycin]: the Molar volume is 1110.7 ± 5.0 cm^3.
As for “Phleomycin [Phleomycin (UNII:BN3E7WJN9X)]”, the Molar volume is recorded as 724.4 ± 7.0 cm^3.
Regarding Ikarugamycin, the Molar volume is given as 390.4 ± 5.0 cm^3.
For `C[C@@H]([C@H](N)C(=O)N[C@H](C(=O)O)[C@H]1O[C@@H](n2ccc(=O)[nH]c2=O)[C@H](O)[C@@H]1O)[C@H](O)c1ccc(O)cn1` [Nikkomycin], the Molar volume was 300.9 ± 3.0 cm^3.
With `CC[C@@H]1/C=C(\C)C[C@H](C)C[C@H](OC)[C@H]2O[C@@](O)(C(=O)C(=O)N3CCCC[C@H]3C(=O)O[C@H](/C(C)=C/[C@@H]3CC[C@@H](O)[C@H](OC)C3)[C@H](C)[C@@H](O)CC1=O)[C@H](C)C[C@@H]2OC` [Ascomycin (KD4185000), Ascomycin], the Molar volume is recorded as 661.8 ± 5.0 cm^3.
For the compound `CC[C@@H](C(=O)O)[C@@H]1O[C@@H]([C@@H](C)[C@H](O)[C@H](C)C(=O)[C@H](CC)[C@H]2O[C@]3(C=C[C@@H](O)[C@]4(CC[C@@](C)([C@H]5CC[C@](O)(CC)[C@H](C)O5)O4)O3)[C@H](C)C[C@@H]2C)[C@@H](C)C[C@@H]1C` [Narasin], the Molar volume is reported as 650.1 ± 5.0 cm^3.

Staying with this data set, now noted: Table 2, anticancer drugs; cited from earlier work.
`C#CCC(Cc1cnc2nc(N)nc(N)c2n1)c1ccc(C(=O)N[C@@H](CCC(=O)O)C(=O)O)cc1` (stereo partly drawn) [Folotyn (Pralatrexate), Pralatrexate]: the Molar volume is given as 324.5 ± 3.0 cm^3.
As for `COc1nc(N)nc2c1ncn2[C@@H]1O[C@H](CO)[C@@H](O)[C@@H]1O` [Arranon (Nelarabine), Nelarabine], the Molar volume is on record as 149.8 ± 7.0 cm^3.
Turning to `CC(C)Cn1cnc2c(N)nc3ccccc3c21` [Aldara (Imiquimod), Imiquimod], the Molar volume was 187.7 ± 7.0 cm^3.
Turning to `CC[C@H](Nc1ncnc2[nH]cnc12)c1nc2cccc(F)c2c(=O)n1-c1ccccc1` [Idelalisib (Zydelig), Idelalisib], the Molar volume was 282.2 ± 7.0 cm^3.
For the compound `CCC1=C[C@@H]2CN(C1)Cc1c([nH]c3ccccc13)[C@@](C(=O)OC)(c1cc3c(cc1OC)N(C)[C@H]1[C@@](O)(C(=O)OC)[C@H](OC(C)=O)[C@]4(CC)C=CCN5CC[C@]31[C@@H]54)C2` [Navelbine (Vinorelbine Tartrate), Vinorelbine Tartrate], the Molar volume was 569.7 ± 5.0 cm^3.
As to `CC(=O)OC[C@H]1O[C@@H](n2ccc(=O)[nH]c2=O)[C@H](OC(C)=O)[C@@H]1OC(C)=O` [Uridine Triacetate (Vistogard), Uridine Triacetate], the Molar volume is listed as 257.5 ± 5.0 cm^3.
On to `CC(C)C[C@H](NC(=O)[C@@H](COC(C)(C)C)NC(=O)[C@H](Cc1ccc(O)cc1)NC(=O)[C@H](CO)NC(=O)[C@H](Cc1c[nH]c2ccccc12)NC(=O)[C@H](Cc1cnc[nH]1)NC(=O)[C@@H]1CCC(=O)N1)C(=O)N[C@@H](CCCNC(=N)N)C(=O)N1CCC[C@H]1C(=O)NNC(N)=O` [Goserelin Acetate (Zoladex), Goserelin Acetate], for which the Molar volume is 844.7 ± 7.0 cm^3.
